Key:
[1] = cited from earlier work
MCF-7 cells = assay: Percentage of survival of MCF-7 cells by LDH content; format: cell-based; settings: 72 hours; for percent of survival of MCF-7 cells, administered more than once: re-dosing at 24 and 48 h; for percent of survival of MCF-7 cells, administered more than once / effect on percent of survival of MCF-7 cells, dosed singly: without Artesunate; for effect on percent of survival of MCF-7 cells, dosed singly: single dose; for survival of MCF-7 cells, therapeutic administered individually: dosed once or multiple times (re-dosing at 24 and 48 h)
Experimental: To assess the effect of Artesunate in combination with several other therapeutics, MCF-7 cells were treated with different concentrations of these therapeutic compounds either once or through repeated dosing. The percentage of survival was calculated based on the LDH contents of cells. 1. 100 ul of cells suspension […]) were added to each well (3000 cells/well), with a total of 5 plates were seeded. […] [table] The appropriate volume of 100% Ethanol was added to Artesunate to obtain a concentration of 10 mg/ml. This was further diluted in 100% Ethanol to 1 mg/ml (1:10). 4 ug/ml was obtained by diluting 1 mg/ml (1:250) in complete medium. Further double decreasing dilutions were carried out in complete medium containing 0.4% Ethanol. […] This was further diluted in complete medium to 16 mM (1:6.25). Further double decreasing dilutions were carried out in complete medium. 2 mg of MMC were resuspended in 4 ml of sterile water to obtain a stock at 0.5 mg/ml. A second dilution of MMC was carried out by diluting 0.5 mg/ml in complete medium to 0.1 mg/ml (1:5). 4. Once the treatments were ready, 50 ul/well of Artesunate was added to the plates. […] 5. 50 ul of complete medium at 0.4% Ethanol and 50 ul of just complete medium were added to the corresponding control wells already containing either 100 ul of cells (positive control) or just 100 ul of complete medium (background control) 6. 100 ul of MMC at 100 ug/ml was added to the corresponding wells already containing 100 ul of cells in complete medium as a negative control and finally, plates were placed in the incubator. […] Media was removed from the wells by using a multichannel pipette. Wells were washed with 200 ul/well of PBS previously warmed at 37° C. 100 ul of Titron 1× in PBS previously warmed at 37° C. were added to the wells. Subsequently, the plate was placed at 37° C. in the dark for 45 min. 50 ul from each well was transferred to a non sterile 96-well plate. 50 ul of LDH substrate were added to each well of the non sterile plate already containing 50 ul/well of lysed cells and the plates were then incubating at room temperature in the dark for 30 min. 50 ul of Stop solution was added to each well and then the plate was read at 492 nm. 8. After 48 h of cells treatment, one of the 2 plates that had been re-dosed after 24 h was re-dosed again (treatments were prepared as described above for re-dosing). One of the 2 plates that had been treated just once will remain as it was in the incubator. The remaining 2 plates were used to measure the % of survival by LDH after 48 h of single treatment and after re-dosing at 24 h (LDH assay was performed as described above). Day 3: LDH-72 h and LDH-Re-Dosing at 24 h and at 48 h After 72 h of cells treatment, there were just 2 plates left in the incubator. They were used to measure the of survival by LDH after 72 h of single treatment and after re-dosing at 24 h and 48 h (LDH assay was performed as described above).

[2] = system: human leukemia HL60 cells; settings: cited from earlier work
[3] = system: human pancreatic cancer BxPC-3 cells; settings: cited from earlier work
[4] = system: ovarian cancer cell lines; settings: cited from earlier work
[5] = system: human pancreatic cancer AsPC-1 cells; settings: cited from earlier work
[6] = compared with arteether and artemether; cited from earlier work
metastatic breast cancer = assay: Case reports: patients with metastatic breast cancer (CAT scan, symptoms, survival); format: in vivo, human; settings: single patient
Source text: A patient comprising a person was diagnosed by their physician with advanced metastatic breast cancer. The metastatic breast cancer consisted of tumors, including several found in both lungs. The physician prescribed a standard set of cancer therapeutics in an attempt to reduce or maintain the tumors. […] The physician placed the patient on a paliative care regime and provided the patient with several doses of the aromatase inhibitor, letrazole. […] The patient was next administered a treatment consisting of artemether at a dose of 40 mg OD, presented in a lipid filled capsule comprising tributyrin and G43.
A patient comprising a person was diagnosed by their physician with extensive metastaic breast cancer. The patient presented with tumors in brain liver and lungs. The patient also presented with symptoms that included shortness of breath and a persistent cough. The patient informed the physician that they would not take part in a standard chemotherapy treatment protocol. The physician informed the patient that they would only live for about three months survival. The patient was instead administered artemether at a dose of 40 mg OD, presented as a lipid filled capsule comprising tributyrin and G43. As a result of the treatment, the symptoms the patient suffered from, including, shortness of breath and a persistent cough diminished over the weeks following treatment with arthemether. […]

C[C@@H]1CC[C@H]2[C@@H](C)C(=O)O[C@@H]3O[C@@]4(C)CC[C@@H]1[C@]32OO4 [artemisinin]
bioavailability [1]: poor bioavailability

Oc1ccc(C=Cc2cc(O)cc(O)c2)cc1 [Resveratrol]
percent of survival of MCF-7 cells, administered more than once (MCF-7 cells): decreasing marginally | effect on percent of survival of MCF-7 cells, dosed singly (MCF-7 cells): only minimal effect

CO[C@H]1O[C@@H]2O[C@@]3(C)CC[C@H]4[C@H](C)CC[C@@H]([C@H]1C)[C@@]24OO3 [artemether, (+)-(3-alpha,5a-beta,6-beta,8a-beta, 9-alpha,12-beta,12aR)-decahydro-10-methoxy-3,6,9-trimethyl-3,12-epoxy-12H-pyrano(4,3-j)-1,2-benzodioxepin]
cytotoxicity (apoptosis, G2 cell cycle arrest) [2]: dose- and time-dependent cytotoxicity | cytotoxicity (apoptosis, G2 cell cycle arrest) [3]: dose- and time-dependent cytotoxicity | cytotoxicity (apoptosis, G2 cell cycle arrest) [4]: dose- and time-dependent cytotoxicity | cytotoxicity (apoptosis, G2 cell cycle arrest) [5]: dose- and time-dependent cytotoxicity

CCCC(=O)[O-].[Na+] [Sodium Butyrate]
survival of MCF-7 cells, therapeutic administered individually (MCF-7 cells): decreased the survival of MCF-7 cells

C[C@H]1[C@H](OC(=O)CCC(=O)O)O[C@@H]2O[C@@]3(C)CC[C@H]4[C@H](C)CC[C@@H]1[C@@]24OO3 [Artesunate]
survival of MCF-7 cells, therapeutic administered individually (MCF-7 cells): decreased the survival of MCF-7 cells

C[C@H]1[C@@H](OCc2ccc(C(=O)O)cc2)O[C@@H]2O[C@@]3(C)CC[C@H]4[C@H](C)CC[C@@H]1[C@@]24OO3 [Artelinic acid]
rate of neurotoxicity [6]: lower rate of neurotoxicity than the related artemisin derivatives arteether and artemether

Oc1ccc([C@H]2COc3cc(O)ccc3C2)cc1 [Equol]
percent of survival of MCF-7 cells, administered more than once (MCF-7 cells): decreasing marginally | effect on percent of survival of MCF-7 cells, dosed singly (MCF-7 cells): only minimal effect

N#Cc1ccc(C(c2ccc(C#N)cc2)n2cncn2)cc1 [letrazole]
tumor progression (CAT scan) (metastatic breast cancer; after several doses of the aromatase inhibitor on palliative care): progressing | growth of one tumor in a lung (metastatic breast cancer; in three months, after several doses of the aromatase inhibitor): 50%

O=c1c(-c2ccc(O)cc2)coc2cc(O)ccc12 [Daidzein]
percent of survival of MCF-7 cells, administered more than once (MCF-7 cells): decreasing marginally | effect on percent of survival of MCF-7 cells, dosed singly (MCF-7 cells): only minimal effect
